Experimental data published in US5444151A, “Platelet derived growth factor antagonists” (Ludwig Institute for Cancer Research, priority 1992, dated 1995).
“Also recorded” adds a separate entry of the source. Numbered stars: 1 amine (or outer) side, 2 acyl side, 3 side chain; on linkers, the order of the positions; unused ones are H or OH. Square brackets hold non-standard residues; d marks the D form. Peptide text beside a SMILES is read from it. X1 = CSc1ccc(-c2[nH]c3ccccc3c2C[C@H](N[*:1])C(=O)[*:2])cc1

Columns and labels:
[1] = molecular target: T1, PDGF-β receptor (Homo sapiens, UniProt P09619); test: Competition with 125I-PDGF-BB for binding to AG1518 fibroblasts (α receptor down regulated by PDGF-AA preincubation); conditions: AG1518 cells, competing activity
T1 construct: cultures of human foreskin fibroblast cell line AG1518; endogenous in cells; host or cells: AG1518 human foreskin fibroblasts (Human Mutant Cell Repository)
T1 sequence (P09619 33-1106): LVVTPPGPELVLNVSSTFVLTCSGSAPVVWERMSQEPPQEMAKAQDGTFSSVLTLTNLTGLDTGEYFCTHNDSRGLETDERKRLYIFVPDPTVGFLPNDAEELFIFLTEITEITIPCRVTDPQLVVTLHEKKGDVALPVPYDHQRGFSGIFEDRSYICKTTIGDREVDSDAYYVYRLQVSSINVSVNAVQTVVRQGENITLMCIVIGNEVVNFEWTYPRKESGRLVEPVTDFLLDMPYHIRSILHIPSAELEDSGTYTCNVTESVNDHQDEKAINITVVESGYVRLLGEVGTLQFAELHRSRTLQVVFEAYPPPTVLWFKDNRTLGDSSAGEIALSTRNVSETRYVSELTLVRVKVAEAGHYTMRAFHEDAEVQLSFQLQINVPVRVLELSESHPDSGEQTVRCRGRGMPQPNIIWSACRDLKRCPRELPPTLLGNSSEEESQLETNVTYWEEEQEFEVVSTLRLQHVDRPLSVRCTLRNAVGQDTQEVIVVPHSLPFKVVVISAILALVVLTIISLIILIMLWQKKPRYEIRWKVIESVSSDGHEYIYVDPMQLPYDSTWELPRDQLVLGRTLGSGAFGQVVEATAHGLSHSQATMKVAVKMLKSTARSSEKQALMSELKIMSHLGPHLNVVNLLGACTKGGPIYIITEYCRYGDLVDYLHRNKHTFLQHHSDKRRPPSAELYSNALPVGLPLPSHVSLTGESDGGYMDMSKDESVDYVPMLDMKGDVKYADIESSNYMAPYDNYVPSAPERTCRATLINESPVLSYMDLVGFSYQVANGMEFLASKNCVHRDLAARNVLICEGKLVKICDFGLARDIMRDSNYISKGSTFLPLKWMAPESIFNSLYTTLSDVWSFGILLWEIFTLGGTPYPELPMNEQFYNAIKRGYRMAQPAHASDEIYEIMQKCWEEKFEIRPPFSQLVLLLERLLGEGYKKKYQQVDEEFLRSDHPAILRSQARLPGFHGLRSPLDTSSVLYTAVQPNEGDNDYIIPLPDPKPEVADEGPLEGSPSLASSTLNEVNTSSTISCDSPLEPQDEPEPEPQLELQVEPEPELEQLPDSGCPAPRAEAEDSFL
Method: (§1) In order to test for receptor binding, cultures of human foreskin fibroblast cell line AG1518 (obtained from the Human Mutant Cell Repository), were grown to confluence in Ham's F-12 medium containing 10% newborn calf serum. Those cells which were to be used in analysis of PDGF-β receptor binding were preincubated for 60 minutes at 37° C. in 0.5 ml/well of Ham's F-12 medium, supplemented with 1 mg/ml of bovine serum albumin (BSA), and 50 ng/ml of PDGF-AA. This combination down regulates PDGF-α receptor, as per Claesson-Welsh et al., J. Biol. Chem. 264: 1742-1747 (1989).
(§2) Cells were prepared for receptor binding analyses by washing with ice cold binding buffer (phosphate buffered saline with 0.9 mM CaCl2, 0.49 mM MgSO4 and 1 mg/ml BSA). The cells were then incubated on ice for 90 minutes with different concentrations (0-100 ug/ml) of synthetic peptides (listed in Table 1, infra), in 0.5 ml of binding buffer per well. […] The labelled ligand was added and then incubated for 60 minutes at 0° C. after which the cells were washed five times with ice cold binding buffer. The washed cells were then lysed for 60 minutes at room temperature in a lysis buffer (1% Triton X-100, 10% glycerol, 20 mM Tris-HCl, pH 7.5). Solubilized radioactivity was determined in a gamma counter. Competing activities of synthetic peptides were compared to standard curves, using unlabelled ligand.
In Table 2, "+++" means <30 μM; "++" from 30-60 μM; "+" 60-150 μM; and "-", >150 μM.

[2] = molecular target: T2, PDGF-α receptor (Homo sapiens, UniProt P16234); test: Competition with 125I-PDGF-AA for binding to AG1518 fibroblasts
T2 construct: cultures of human foreskin fibroblast cell line AG1518; endogenous in cells; host or cells: AG1518 human foreskin fibroblasts
T2 sequence (P16234 24-1089): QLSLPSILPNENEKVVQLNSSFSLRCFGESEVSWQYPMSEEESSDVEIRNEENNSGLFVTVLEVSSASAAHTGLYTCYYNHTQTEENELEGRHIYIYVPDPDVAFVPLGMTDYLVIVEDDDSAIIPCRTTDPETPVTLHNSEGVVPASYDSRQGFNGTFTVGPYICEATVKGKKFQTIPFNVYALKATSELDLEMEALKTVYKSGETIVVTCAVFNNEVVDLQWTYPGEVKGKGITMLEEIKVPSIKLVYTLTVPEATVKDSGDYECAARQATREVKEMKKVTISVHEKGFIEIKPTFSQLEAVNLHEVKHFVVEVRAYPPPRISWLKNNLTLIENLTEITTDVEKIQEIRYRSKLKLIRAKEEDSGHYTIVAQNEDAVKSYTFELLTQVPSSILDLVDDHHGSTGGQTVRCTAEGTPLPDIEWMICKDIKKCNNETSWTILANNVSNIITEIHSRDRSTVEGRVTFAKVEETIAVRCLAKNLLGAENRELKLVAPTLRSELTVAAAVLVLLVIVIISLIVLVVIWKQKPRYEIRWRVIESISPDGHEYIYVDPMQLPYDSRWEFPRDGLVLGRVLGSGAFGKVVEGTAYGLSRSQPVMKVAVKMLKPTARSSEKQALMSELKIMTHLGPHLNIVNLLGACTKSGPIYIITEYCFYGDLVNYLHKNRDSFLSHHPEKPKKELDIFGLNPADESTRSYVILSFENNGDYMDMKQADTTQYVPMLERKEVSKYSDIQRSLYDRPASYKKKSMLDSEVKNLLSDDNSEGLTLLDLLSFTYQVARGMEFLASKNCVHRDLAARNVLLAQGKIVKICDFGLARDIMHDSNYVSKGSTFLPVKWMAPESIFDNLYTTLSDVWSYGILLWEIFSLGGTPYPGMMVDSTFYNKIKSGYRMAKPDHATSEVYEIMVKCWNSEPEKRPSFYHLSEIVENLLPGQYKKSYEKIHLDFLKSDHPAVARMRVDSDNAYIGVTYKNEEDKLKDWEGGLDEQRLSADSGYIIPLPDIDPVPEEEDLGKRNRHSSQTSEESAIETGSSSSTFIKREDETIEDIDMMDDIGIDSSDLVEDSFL
Method: as §1, §2

[3] = molecular target: T3, EGF receptor (Homo sapiens, UniProt P00533); test: Competition with 125I-EGF for binding to AG1518 fibroblasts
T3 construct: cultures of human foreskin fibroblast cell line AG1518; endogenous in cells; host or cells: human foreskin fibroblasts (AG1518)
T3 sequence (P00533 25-1210): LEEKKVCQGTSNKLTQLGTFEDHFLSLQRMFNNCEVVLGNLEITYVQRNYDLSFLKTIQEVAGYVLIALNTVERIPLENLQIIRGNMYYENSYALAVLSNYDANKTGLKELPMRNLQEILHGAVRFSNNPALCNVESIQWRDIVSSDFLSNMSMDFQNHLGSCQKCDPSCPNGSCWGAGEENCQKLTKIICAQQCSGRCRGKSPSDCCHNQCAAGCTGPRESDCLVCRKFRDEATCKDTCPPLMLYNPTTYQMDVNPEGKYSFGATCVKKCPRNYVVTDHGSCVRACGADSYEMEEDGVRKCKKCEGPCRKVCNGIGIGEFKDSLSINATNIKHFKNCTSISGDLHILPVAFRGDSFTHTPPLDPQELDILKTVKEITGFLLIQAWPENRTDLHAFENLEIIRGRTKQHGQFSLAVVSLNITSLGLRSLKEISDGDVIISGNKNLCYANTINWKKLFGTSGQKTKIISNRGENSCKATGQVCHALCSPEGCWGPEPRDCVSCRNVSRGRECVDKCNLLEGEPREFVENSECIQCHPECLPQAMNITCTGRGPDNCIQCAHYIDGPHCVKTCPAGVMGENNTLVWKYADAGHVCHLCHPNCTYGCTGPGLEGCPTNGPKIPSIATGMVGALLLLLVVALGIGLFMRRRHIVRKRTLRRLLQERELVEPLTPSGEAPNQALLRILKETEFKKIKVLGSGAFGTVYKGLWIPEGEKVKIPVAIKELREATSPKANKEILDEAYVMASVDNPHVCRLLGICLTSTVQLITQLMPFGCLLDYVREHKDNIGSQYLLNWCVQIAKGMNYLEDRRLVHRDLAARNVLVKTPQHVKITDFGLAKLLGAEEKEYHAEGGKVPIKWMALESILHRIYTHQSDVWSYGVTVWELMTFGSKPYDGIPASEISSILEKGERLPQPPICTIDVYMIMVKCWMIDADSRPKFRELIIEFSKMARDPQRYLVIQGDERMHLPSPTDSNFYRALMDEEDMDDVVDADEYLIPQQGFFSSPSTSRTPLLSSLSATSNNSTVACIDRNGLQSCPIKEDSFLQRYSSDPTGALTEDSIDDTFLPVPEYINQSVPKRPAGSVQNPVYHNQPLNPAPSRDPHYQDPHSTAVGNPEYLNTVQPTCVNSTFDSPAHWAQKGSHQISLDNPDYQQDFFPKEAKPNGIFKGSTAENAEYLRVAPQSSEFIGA
Method: as §1, §2

[4] = test system: human foreskin fibroblasts; test: Ligand stimulated [3H]thymidine incorporation; type: cell-based
Source text: The possible role of peptide 16T as an antagonist for PDGF activity in vivo was investigated. Following the methodology of Betsholtz et al., J. Cell Physiol 118: 203-210 (1984), the disclosure of which is incorporated by reference, [^3 H] thymidine incorporation by human fibroblasts in the presence of various peptides was studied.

[5] = test system: human foreskin fibroblast cells; test: Inhibition of 125I-ligand internalization and degradation (TCA non-precipitatable radioactivity); type: cell-based; conditions: four hours at 37° C.
Method: To do this, confluent human foreskin fibroblast cells in 12 well dishes were washed once with 1.0 ml of Ham's F-12 medium, supplemented with 1 mg/ml BSA. As described supra, those cells to be tested later for ^125 I-PDGF-BB degradation were preincubated with PDGF-AA to down regulate α receptors. […] The mixtures were incubated for four hours at 37° C., the incubation medium was removed, and then precipitated with trichloroacetic acid at 10% final concentration. The amount of trichloroacetic acid non-precipitatable radioactivity in cell culture medium was taken as an estimate of ligand degradation--i.e., it represents ligand that had been internalized, degraded and released into the medium in the form of free ^125 I, ^[…] or low molecular weight fragments. This parameter was defined after four hours of incubation at 37° C.

[6] = test system: PDGF-α or β receptors; test: PDGF receptor internalization and down regulation; type: cell-based, human; conditions: four hours at 37° C.; surface receptors estimated with 125I-PDGF-BB
Method: As binding of PDGF to receptors leads to receptor internalization and down regulation, investigations were carried out to determine whether the interaction of PDGF and peptide […] led to the internalization and down regulation of receptors. To test this, confluent cells, as described supra, were washed once with binding buffer at 37° C., followed by incubation with different concentrations of synthetic peptide (0.5 ml of PBS containing 1 mg/ml BSA). Following this, the cells were incubated at 37° C. for four hours, followed by washing with 1 ml of ice cold buffer consisting of 20 mM Na-acetate, 150 mM NaCl, 0.2% BSA adjusted to pH 3.7 with acetic acid. The cells were then incubated for 10 minutes on ice in buffer, followed by two washings with 1 ml binding buffer, at pH 7.4. The number of PDGF receptors on the cell surface was estimated by incubation with ^125 I-PDGF-BB (~50,000cpm) in 0.5 ml binding buffer for 60 minutes on ice, followed by washing, lysis and determination of cell bound radioactivity.

[7] = test system: PDGF receptors; test: PDGF-BB induced receptor dimerization and autophosphorylation in intact cells; type: cell-based, human; conditions: PDGF-BB 300 ng/ml, intact fibroblasts
Method: (§3) Confluent human foreskin fibroblast cells were used (25 cm^2 dishes of cultures). The cells were washed twice with binding buffer, as described supra, with 1 mg/ml BSA added thereto. This was followed by 90 minutes of incubation with one of synthetic peptides 16, […], 20 and […] on ice. […] A dimerization assay was then carried out, basically following Eriksson et al., Growth Factors 6: 1-14 (1992). Essentially, receptors were cross linked for 20 minutes at room temperature in 1 mM BS^3 (Bis(sulfosuccinimidyl)suberate) in lysis buffer (0.5% Triton X-100, 0.5% deoxycholate, […], pH 7.4, 150 mM NaCl, 10 mM EDTA, 1 mM PMSF (phenylmethylsulfonyl fluoride), 1% Trasylol (aprotinin), 100 μM ortovandat, a phosphatase inhibitor). Cross linking was quenched by adding 70 mM methylammonium chloride for 10 minutes. Samples were then subjected to SDS gel electrophoresis in 4% slab gels, followed by electroblotting on to nitrocellulose membranes. The blocked membranes were incubated for two hours with affinity purified phosphotyrosine antibodies (Ek et al., J. Biol. Chem. 259: 1145-11152 (1984)), followed by three washes. Blots were then incubated for 45 minutes with peroxidase conjugated, affinity purified swine antirabbit IgG immunoglobulin. After an additional three washes, complexes were visualized using the ECL developing system.

[8] = molecular target: T3, EGF receptor; test: EGF induced receptor dimerization and autophosphorylation in intact cells; type: cell-based; conditions: EGF 300 ng/ml, intact fibroblasts
Method: as §3

[9] = molecular target: T4, PDGF-β receptor (Sus scrofa, UniProt A0A8W4FFG6); test: Autophosphorylation and dimerization of partially purified PDGF-β receptor; type: biochemical, porcine; conditions: nearly complete for 16T, complete for 16; about 100 ng receptor, 100 ng PDGF-BB, 40 ul
T4 construct: from Triton X-100 solubilized porcine uterus membranes and purified up to the Mono-Q chromatography step; from tissue; host or cells: porcine uterus membranes
T4 sequence (A0A8W4FFG6 32-1102): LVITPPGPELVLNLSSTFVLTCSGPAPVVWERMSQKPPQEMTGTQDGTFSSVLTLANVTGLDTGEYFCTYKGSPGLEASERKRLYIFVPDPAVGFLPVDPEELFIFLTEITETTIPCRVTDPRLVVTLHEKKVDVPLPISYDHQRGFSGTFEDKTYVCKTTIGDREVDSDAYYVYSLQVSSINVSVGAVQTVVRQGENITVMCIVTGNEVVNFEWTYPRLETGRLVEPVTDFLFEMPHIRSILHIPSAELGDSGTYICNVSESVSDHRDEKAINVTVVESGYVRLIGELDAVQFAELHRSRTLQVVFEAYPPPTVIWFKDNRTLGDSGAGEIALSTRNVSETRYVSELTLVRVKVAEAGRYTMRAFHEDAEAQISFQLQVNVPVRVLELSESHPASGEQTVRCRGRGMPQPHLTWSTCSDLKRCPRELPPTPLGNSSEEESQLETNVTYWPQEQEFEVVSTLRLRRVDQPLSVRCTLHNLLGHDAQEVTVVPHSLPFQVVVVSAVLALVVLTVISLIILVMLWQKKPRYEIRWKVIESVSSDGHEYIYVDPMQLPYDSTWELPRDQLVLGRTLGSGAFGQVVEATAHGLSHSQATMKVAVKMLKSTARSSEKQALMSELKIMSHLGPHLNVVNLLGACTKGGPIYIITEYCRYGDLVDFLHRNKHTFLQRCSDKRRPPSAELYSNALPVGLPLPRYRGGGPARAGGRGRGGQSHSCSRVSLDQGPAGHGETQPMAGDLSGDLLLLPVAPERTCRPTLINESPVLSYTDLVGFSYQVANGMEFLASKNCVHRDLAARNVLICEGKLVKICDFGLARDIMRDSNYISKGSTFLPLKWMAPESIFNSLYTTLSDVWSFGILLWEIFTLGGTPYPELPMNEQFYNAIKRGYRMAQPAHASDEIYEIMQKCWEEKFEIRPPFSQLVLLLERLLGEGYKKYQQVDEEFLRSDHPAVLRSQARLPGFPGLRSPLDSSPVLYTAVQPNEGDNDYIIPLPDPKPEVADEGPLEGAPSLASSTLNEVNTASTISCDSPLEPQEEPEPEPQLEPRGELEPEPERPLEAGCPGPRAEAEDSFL
Method: A preparation of PDGF-β receptor, from Triton X-100 solubilized porcine uterus membranes and purified up to the Mono-Q chromatography step of Ronnstrand et al., J. Biol. Chem. 262: 2929-2932 (1987), was made, and the autophosphorylation assay described therein was carried out.
Approximately 100 ng of the receptor was incubated for 5 minutes at 0° C. with peptide 16T or peptide 20, at different concentrations. […] Four ul of 150 μM [^32 P]ATP (containing 5×10^6 cpm of radioactivity) was added, followed by an additional 10 minutes of incubation at 0° C. Incorporation of radioactivity was terminated by adding 5 μl of 15 mM unlabelled ATP and 5 μl of 40 mM phenylphosphate. Samples were cross linked by incubating with 0.5 mM DSS (12.5 mM, in dimethyl sulfoxide) for 30 minutes at room temperature. The cross linking reaction was blocked by adding 50 mM methylammonium chloride, 20 mM Hepes, pH 7.4.

50% competition for receptor binding ([2]; α receptor): Forty-four
Down regulation of PDGF receptors (in words) [6]: did not downregulate
Effect on EGF induced autophosphorylation and dimerization (in words) [8]: no effect
Amount of peptide giving complete inhibition of dimerization and autophosphorylation [9]: 5 µg
SMILES: CC[C@H](C)[C@H](NC(=O)[C@H](CCC(=O)O)NC(=O)[C@H](Cc1c(-c2ccc(SC)cc2)[nH]c2ccccc12)NC(=O)[C@@H](NC(=O)[C@H](CC(C)C)NC(=O)[C@H](Cc1ccccc1)NC(=O)[C@H](CC(N)=O)NC(=O)[C@H](C)N)C(C)C)C(=O)N[C@H](C(=O)N[C@@H](CCCNC(=N)N)C(=O)N[C@@H](CCCCN)C(=O)N[C@@H](CCCCN)C(=O)N1CCC[C@H]1C(=O)O)C(C)C [*16T, Ala Asn Phe Leu Val Xaa Glu Ile Val Arg Lys Lys Pro] (H-ANFLV[X1]EIVRKKP-OH; N-terminus and C-terminus assumed)
Receptor competing activity, PDGF-BB binding (in words) [1]: effective competitor; also recorded: far more efficient in competing with PDGF for receptor binding
Receptor competing activity, PDGF-AA binding (in words) ([2]; AG1518 cells): higher activity; also recorded: effective competitor
Competition for binding of 125I-EGF to the EGF receptor (in words) [3]: none of peptides 16, 16T, 20 and 20T compete
Effect on ligand stimulated [3H]thymidine incorporation (in words) ([4]; PDGF-AA, PDGF-BB or EGF stimulation): did inhibit PDGF-AA and PDGF-BB induced mitogenicity, but also EGF induced mitogenicity
Effect on background [3H]thymidine incorporation (in words) ([4]; no ligand): lowered background incorporation of [^3 H] thymidine dramatically
[3H]thymidine incorporation, Control ([4]; peptide present, no ligand, mean of duplicates): 46 cpm
[3H]thymidine incorporation, EGF ([4]; peptide present, stimulated with EGF, mean of duplicates): 119 cpm
[3H]thymidine incorporation, PDGF-AA ([4]; peptide present, stimulated with PDGF-AA, mean of duplicates): 90 cpm
[3H]thymidine incorporation, PDGF-BB ([4]; peptide present, stimulated with PDGF-BB, mean of duplicates): 102 cpm
Inhibition of 125I-PDGF-AA degradation (in words) [5]: most effective
Inhibition of 125I-PDGF-BB degradation (in words) ([5]; α receptors down regulated): most potent
Inhibition of PDGF induced autophosphorylation and dimerization [7]: about 55%
